Assay results published in patent US20200345689A1, “METHODS AND CO[…] RRx-001 FOR RADIOPROTECTION” (EpicentRx, Inc., priority 2018, published 2020).

Legend:
[1] = tested on: NAD(P)H Dehydrogenase [Quinone] 1 (NQO-1); test: Western blot of ARE protein expression in hMSC: NQO-1; format: cell-based, human; details: 5 mM RRx-001 for 16 hours, all groups
Experimental: (§1) Antioxidant response element (ARE) genes such as heme oxygenase 1 (HO-1), NAD(P)H Dehydrogenase [Quinone] 1 (NQO-1) and Superoxide Dismutase (SOD) are involved in the detoxification and elimination of reactive oxidants.
(§2) Expression of ARE proteins was assayed in hMSC, macrophages, and monocytes following in vitro irradiation of the cells, which were pretreated with RRx-001 or vehicle. Protein expression was assayed by Western blotting and protein quantification.
(§3) hMSC were treated for 16 hours with […] RRx-001 or the vehicle control (0.05% DMSO), irradiated at 10 Gy or sham-irradiated and the protein collected 8 or 24 hours post-sham or irradiation. Human monocytic leukemic THP-1 and U937 cells were differentiated into macrophages with 50 nM Phorbol 12-myristate 13-acetate (PMA) for 24 hours before treatment. Differentiated and non-differentiated cells were treated with […] RRx-001 or 0.05% DMSO (vehicle control) for 16 hours prior to radiation. The cells were irradiated at 5 Gy or sham-irradiated and collected 4-8 hours later for both analysis. For each experiment, duplicates of each sample were run.

HO-1 = test: Western blot of HO-1 in U937 monocytes and macrophages; format: cell-based, human; details: 3 mM RRx-001 for 16 hours
Experimental: as §2, §3

[2] = Tolerability and body weight in the hamster mucositis study; format: in vivo, hamsters
Experimental: Fifty-six (56) male Syrian Golden Hamsters were used in the study. Mucositis was induced by administering an acute radiation dose of 40 Gy directed to the left buccal cheek pouch on Day 0 at a rate of 2-2.5 Gy/min. Mucositis was evaluated clinically starting on Day 6 and continuing on alternate days until Day 28. Hamsters reaching a mucositis severity score of 4 or higher received buprenorphine (0.5 mg/kg) SC twice a day for 48 hours or until score dropped below 4.
Dosing was scheduled as follows: for animals in Groups 1-4, animals were dosed with RRx-001 (1, 3, or 10 mg/kg) or vehicle (1:2 DMA:PEG400 vol:vol ratio) once a day (QD) on Days −4, −1, 1, 4, 7, 11, 14, 18, 21, and 25 via intraperitoneal (IP) administration; animals in Groups 5-7 were dosed QD with RRx-001 (1, 3, or 10 mg/kg) on Days −4, −1, 1, 8, 15, and 22.
Dosing of all other groups continued as scheduled. Upon study conclusion, on Day 28, Animals were euthanized via CO2 inhalation and death was confirmed by monitoring heartbeat in accordance with USDA guidelines.

heme oxygenase 1 (HO-1) = test: Western blot of ARE protein expression in hMSC: HO-1; format: cell-based, human; details: 5 mM RRx-001 for 16 hours
Experimental: as §1, §2, §3

CD2F1 male mice = test: 30-day survival following lethal total body irradiation; format: in vivo
Experimental: In this Example, the effects of systemic administration of RRx-001 on survival in response to a lethal dose of radiation was assayed in mice. CD2F1 male mice 9.5-11 weeks old were administered a single dose of RRx-001 by intraperitoneal (IP) injection 24 hours prior to a lethal radiation dose. 24 mice received 10 mg/kg RRx-001 (formulated in 5% DMSO in sterile H2O) and 24 mice received the vehicle control (5% DMSO in sterile H2O only).
The mice were subjected to total body irradiation (TBI) with 9.35 Gy (LD70/30) at 0.6 Gy/min using High-level Cobalt-60. Unanesthetized mice were placed in well-ventilated Plexiglas restrainers and irradiated bilaterally. Sham-irradiated mice were also placed in identical Plexiglas restrainers and kept in a room shielded from irradiation at the same time. In each experiment, the dose to the abdominal cores of the animals was delivered at a dose rate of approximately 0.6 Gy/min. Dosimetry was performed prior to the irradiation of the animals using the highly accurate alanine/electron spin resonance (ESR) dosimetry system (American Society for Testing and Materials, Standard E 1607) to measure dose rates (to water) in the cores of acrylic mouse phantoms, which were located in the compartments of the exposure rack. A calibration curve based on standard alanine calibration dosimeters provided by the National Institute of Standards and Technology (NIST, Gaithersburg, Md.) was used to measure the doses. The accuracy of the dose rate calibrations has been verified several times using the services of the National Physics Laboratory (UK National Standards Laboratory, London, UK) and the M.D. Anderson Cancer Center (Houston, Tex.). The corrections applied to the measured dose rates in the phantoms were for a small difference in the Co-60 energy between the mass energy-absorption coefficients for soft tissue and water, as well as source decay. The radiation field was uniform within ±1.2%.
Mice were monitored at least twice a day for 30 days post-irradiation. During the critical period (days 10-20), mice were monitored at least three times a day with no more than 10 hours between observations. Mice displaying any signs of discomfort received food in their cage as a wet mash. Mice displaying overt dyspnea, weight loss, lethargy, or other markers of moribundity and appearing to be in distress were humanely euthanized in a separate room using carbon dioxide gas followed by cervical dislocation after breathing stopped as a confirmatory method of euthanasia. This experiment was repeated for a total of n=24 mice per group.
Survival curves were estimated using the Kaplan-Meier method and were compared using a two-sided log-rank test at the 0.05 significance level. P-values were considered statistically significant if less than 0.05.

NQO-1 = test: Western blot of NQO-1 in U937 macrophages; format: cell-based, human; details: 3 mM RRx-001 for 16 hours, sham and irradiated groups
Experimental: as §2, §3

[3] = 10 mg/kg 24 hours prior to lethal TBI, vs vehicle control

SMILES: O=C(CBr)N1CC([N+](=O)[O-])([N+](=O)[O-])C1 [RRx-001, 2-bromo-1-(3,3-dinitroazetidin-1-yl)ethan-1-one]
- NQO-1 expression [1]: slightly reduced
- HO-1 production (HO-1; U937 macrophages, sham and irradiated groups): increased HO-1 production
- HO-1 expression (HO-1; U937 monocyte fraction): significant increase in HO-1
- body weight ([2]; Groups 2 and 5 (10 mg/kg)): lower weights than all other groups
- body weight after cessation of dosing ([2]; Groups 2 and 5 (10 mg/kg), in line with other groups by study termination): weight slowly recovered
- body weight ([2]; animals other than Groups 2 and 5 (1 and 3 mg/kg), duration of the study): steadily gained weight
- tolerability ([2]; highest dose 10 mg/kg IP, Groups 2 and 5, dosing discontinued after Day 1): adverse side effects
- increase in HO-1 expression (heme oxygenase 1 (HO-1); 24 hours post-sham or irradiation): 2-3.5 fold
- increase in HO-1 expression (heme oxygenase 1 (HO-1); sham and 10 Gy irradiated groups, 8 hours post-sham or irradiation): 22-26 fold
- increase in mean survival time (CD2F1 male mice; [3]): 7 days
- increase in survival (CD2F1 male mice; [3]): 33.4%
- survival times, means±standard errors (CD2F1 male mice; 10 mg/kg IP 24 hours prior to 9.35 Gy TBI, 30-day observation, N=24/group): 27.2 ± 1.1 days
- reduction in the 30-day death risk (CD2F1 male mice; one dose of 10 mg/kg IP 24 hours prior to 9.35 Gy (LD70/30) TBI, vs vehicle control irradiated mice): ~33.4%
- NQO-1 expression (NQO-1): no change
